The series is described as follows: Neurotoxicity against human neuroblastoma SH-SY5Y cells using MTT dye conversion assay. In general terms: Formazan colour is commonly taken as a measure of viable cells.

Broadly, the CC50 is the concentration that lowers cell viability or growth by half. A high value points to lower toxicity to the cells.

Molecule `CC1NCCc2c(O)cccc21` (stereo not drawn) gave a CC50 of 3380 µM.

The molecule `COc1cc2c(cc1OC)C(C)NCC2` (stereo not drawn) showed a CC50 of 2730 µM.

In the case of `CC1NCCc2ccc(O)cc21` (stereo not drawn), the CC50 came to 4150 µM.

Regarding `CC1NCCc2cc(O)c(O)cc21` (stereo not drawn), the CC50 was 34 µM.

For `COc1ccc2c(c1)CCNC2C` (stereo not drawn), half-maximal cytotoxicity (CC50) was put at 2790 µM.

With `CC1NCCc2cc(O)ccc21` (stereo not drawn), half-maximal cytotoxicity (CC50) was put at 3630 µM.

The molecule `COc1ccc2c(c1)C(C)NCC2` (stereo not drawn) gave a CC50 of 1390 µM.

`COc1cccc2c1CCNC2C` (stereo not drawn) returned a cytotoxic concentration (CC50) of 2450 µM.

The values above are taken from ChEMBL document CHEMBL1136177, “Neuroprotective or neurotoxic activity of 1-methyl-1,2,3,4-tetrahydroisoquinoline and related compounds” (Bioorg Med Chem Lett, 2003).
